US20130071328A1, “Propynoic Acid Carbamoyl Methyl-Amides and Pharmaceutical Compositions and Methods Based Thereon” (UNIVERSITY OF SOUTHERN CALIFORNIA, priority 2011, published 2013)
“Also recorded” adds a separate entry of the source.

Experiments:
[1] = tested on: HCT116 p53^−/− colon cancer cell line; experiment: MTT cytotoxicity assay, HCT116 p53-/-; format: cell-based; settings: Homo sapiens, HCT-116, 72 h exposure
Excerpt: (§1) The human breast cancer cell line MDA-MB-435 and the colon cancer cell line HT29 were purchased from the American Type Cell Culture (Manassas, Va.). Colon cancer cell lines HCT116 p53^+/+ and HCT116 p53^−/− were kindly provided by Dr. Bert Vogelstein (Johns Hopkins Medical Institutions, Baltimore, Md.). The human ovarian carcinoma cell line (HEY), naturally resistant to cisplatin (CDDP), was kindly provided by Dr. Louis Dubeau (USC Norris Cancer Center). The bladder cancer cell lines were kindly provided by Dr. Richard Cote (USC Keck School of Medicine). Cells were maintained as monolayer cultures in the appropriate media: RPMI-1640 (HT29, HCT116 p53^+/+, HCT116 p53^−/−, and HEY cell lines) or DMEM (MDA-MB-435 and UMUC3 cell lines) supplemented with 10% fetal bovine serum (FBS) (HyClone, Road Logan, Utah) at 37° C. in a humidified atmosphere of 5% CO2. To remove the adherent cells from the flask for subculture and counting, cells were washed with PBS without calcium or magnesium, incubated with a small volume of 1×trypsin-EDTA solution (Sigma-Aldrich, St. Louis, Mo.) for 5 min, resuspended with fresh culture medium, and centrifuged at 1200 rpm for 5 min. All experiments were performed using cells in exponential growth phase. Cells were routinely checked for Mycoplasma contamination using PlasmaTest kit (InvivoGen, San Diego, Calif.).
(§2) Cytotoxicity was assessed by MTT assay as described previously. 43 In brief, cells were seeded in 96-well microtiter plates and allowed to attach overnight. Cells were subsequently treated with continuous exposure to corresponding drugs for 72 h. At the end of treatments, an MTT solution (at a final concentration of 0.5 mg/mL) was added to each well, and cells were incubated for 4 h at 37° C. After removal of the supernatant, DMSO was added, and the absorbance was read at 570 nm. All assays were done in triplicate. The IC50 was then determined for each drug from a plot of log(drug concentration) versus percentage of cells killed.

[2] = tested on: doxorubicin-resistant NCI/ADR-RES ovarian cancer cell line; experiment: Cytotoxicity assay, NCI/ADR-RES; format: cell-based; settings: Homo sapiens, MTT, 72 h exposure (Table 2)
Experimental: as §2

[3] = tested on: 5637 bladder cancer cell line; experiment: MTT cytotoxicity assay, 5637; format: cell-based, human; settings: for IC50: Homo sapiens, 72 h exposure
Excerpt: as §1, §2

[4] = tested on: HCT116 p53^+/+ colon cancer cell line; experiment: MTT cytotoxicity assay, HCT116 p53+/+; format: cell-based; settings: Homo sapiens, HCT-116, 72 h exposure
Excerpt: as §1, §2

[5] = tested on: MDA-MB-435 cells; experiment: Mitochondrial superoxide production (MitoSOX Red); format: cell-based, human; settings: IC50 or 3×IC50, 24 hours
Experimental: After drug treatments, a solution of 5 μM MitoSOX Red mitochondrial superoxide indicator (Invitrogen, Carlsbad, Calif.) was added, and cells were incubated for 10 min at 37° C. Cells were then washed three times with Hank's balanced salt solution (HBSS) to remove excess MitoSOX. After washing, cells were either observed under the fluorescence microscope or collected by trypsinization, washed twice with HBSS, and measured for superoxide production using a BD LSRII flow cytometer (BD Biosciences, San Jose, Calif., USA). Data were analyzed with the BD FACSDiva software package (BD Biosciences, San Jose, Calif., USA).

[6] = tested on: HT29 colon cancer cell line; experiment: MTT cytotoxicity assay, HT29; format: cell-based; settings: Homo sapiens, HT-29, 72 h exposure
Excerpt: as §1, §2

[7] = tested on: MDA-MB-435 cells; experiment: Apoptosis assay, annexin V/propidium iodide flow cytometry; format: cell-based, human; settings: for induction of apoptosis: 24 and 48 hours
Experimental: To quantify drug-induced apoptosis, annexin V/propidium iodide staining was performed and analyzed by flow cytometry. MDA-MB-435 cells were treated with 10 μM compound 1, 2, or 4 for 24 and 48 h. After treatment, both floating and adherent cells were combined and subjected to annexin V/propidium iodide staining using an annexin V-FITC apoptosis detection kit (Oncogene Research Products, San Diego, Calif.) according to manufacturer's recommendations. Untreated control cells (48 h) were maintained in parallel to drugtreated groups. Double staining was used to distinguish between viable, early apoptotic, and necrotic or late apoptotic cells. The resulting fluorescence (FITC-A channel for green fluorescence and PE-A channel for red fluorescence) was measured by flow cytometry using a BD LSRII flow cytometer (BD Biosciences, San Jose, Calif.).

[8] = tested on: HEY ovarian cancer cell line; experiment: Cytotoxicity assay, HEY; format: cell-based; settings: Homo sapiens; MTT, 72 h exposure (Table 2)
Excerpt: as §1, §2

[9] = tested on: MDA-MB-435 xenograft; experiment: MDA-MB-435 mouse xenograft model; format: in vivo
Experimental: To investigate the in vivo efficacy of these compounds, we selected compound 2 and evaluated its anticancer activity in a nude mouse xenograft model using MDA-MB-435 cells. Animals were treated with daily intraperitoneal (i.p.) injections of DMSO in sesame oil (vehicle control) or compound 2 at 10 mg/kg for 9 days, followed by 20 mg/kg for 5 days and concluding with 40 mg/kg for 12 days. After 26 days of dosing, the drug treatment was discontinued. Mice were monitored daily for an additional 17 days, and tumors were measured twice per week. FIG. 4A summarizes the tumor volume (mean±SEM) of the treatment groups throughout the observation time.
Sixteen virgin female athymic nude (nu/nu) mice (Simonsen Laboratory Inc., Gilroy, Calif.) were used for in vivo efficacy testing. […]
Human breast cancer MDA-MB-435 cells in logarithmic phase growth from in vitro cell culture were inoculated subcutaneously on the rear flank of the mice (1.5×10^6 cells/mouse) under aseptic conditions. Tumor growth was assessed twice weekly by measuring tumor diameters with a Vernier caliper (length×width). Tumor weight was calculated according to the formula: TW (mg)=tumor volume (mm^3)=d^2×D/2, where d and D are the shortest and longest diameters, respectively. […]
Eight mice were assigned to each group and the results were expressed as the mean±SEM. […]

[10] = tested on: UMUC3 bladder cancer cell line; experiment: MTT cytotoxicity assay, UMUC3; format: cell-based; settings: Homo sapiens, 72 h exposure
Excerpt: as §1, §2

[11] = Pharmacokinetics study after i.p. administration; format: in vivo, mice; settings: mouse, ip
Experimental: To assess the efficacy, tolerability, and pharmacokinetics of these novel compounds following i.p. administration, the pharmacokinetic profile of compounds 4 and 9 was evaluated (Table 3). Mice were treated with compounds 4 and 9 via i.p. injection and serial blood sampling was determined at indicated times after administration. The plasma concentration was determined using a validated liquid chromatography mass spectrometry (LC-MS) method where the lowest level of quantification was 1 ng/mL. One hour following i.p. administration of compounds 4 and 9, their concentrations in the blood were 344 and 6.2 ng/mL, respectively. […] The half-lives of compounds 4 and 9 via i.p. administration were determined to be approximately 3.5 and 9.3 hours, respectively, when a non-compartmental pharmacokinetics analysis was used. The favorable pharmacokinetics profile of compounds 4 and 9 is consistent with the ADMET predictions described previously.
Preliminary pharmacokinetics of compounds 4 and 9 were performed using 18 mice, each time point consisting of two mice. Mice were stratified to various doses given as an i.p. injection of compounds 4 and 9 (24 mg/kg). At the specified time points following drug administration, blood was collected with heparinized syringes. The samples were allowed to settle in 500 μL eppendorf vials and then centrifuged at 1500 rpm for 10 min. The plasma was removed, transferred into new eppendorf tube, and frozen at −80° C. until analysis.

[12] = tested on: MDA-MB-435 cells; experiment: Cell cycle analysis by propidium iodide flow cytometry; format: cell-based, human
Experimental: Cell cycle perturbations were analyzed by propidium iodide DNA staining. Exponentially growing MDA-MB-435 cells were treated with 5 μM compound 4 for 6, 12, and 24 h. At the end of treatment, cells were collected and washed with 1×PBS after a gentle centrifugation at 1500 rpm for 5 min. Cells were then thoroughly resuspended in 0.5 mL of PBS and fixed in 70% ethanol overnight at 4° C. Ethanol-fixed cells were centrifuged at 3000 rpm for 5 min and washed twice in PBS to remove residual ethanol. For cell cycle analysis, the pellets were resuspended in 1 mL of PBS containing 0.02 mg/mL of propidium iodide and 0.5 mg/mL of DNase-free RNase A and incubated at 37° C. for 30 min. Cell cycle profiles were obtained using a BD LSRII flow cytometer (BD Biosciences, San Jose, Calif.). Propidium iodide was excited using a 488 nm blue argon laser. Resulting fluorescence was measured using a PMT detector equipped with 550 nm long pass dichroic mirror and 575/26 bandpass filter. Data were analyzed with the ModFit LT software package (Verify Software House, Inc., Topsham, Me.).

[13] = tested on: MDA-MB-435 breast cancer cell line; experiment: MTT cytotoxicity assay, MDA-MB-435; format: cell-based, human
Excerpt: as §1, §2

[14] = tested on: panel of cancer cells; experiment: MTT cytotoxicity of compound 4 across tested cell lines (FIG. 2B); format: cell-based; settings: Homo sapiens, MTT assays
Experimental: as §2

| SMILES | IC50 [1] | IC50 [2] | IC50 [3] | IC50 [4] | mitochondrial superoxide production, flow cytometry [5] | IC50 [6] | percentage of late apoptotic cells ([7]; 10 μM, 48 hours) | induction of apoptosis [7] | IC50 [8] | IC50 [10] | also measured |
| --- | --- | --- | --- | --- | --- | --- | --- | --- | --- | --- | --- |
| C#CC(=O)N(c1cccc(C(F)(F)F)c1)C(C(=O)NC1CCCC1)c1cccc(OC)c1 (stereo not drawn) [Compound 2, N-[2-(Cyclopentylamino)-1-(3-methoxyphenyl)-2-oxoethyl]-N-[3-(trifluoromethyl)phenyl]Propynamide] | 8.8 ± 0.4 µM | 0.2 ± 0.1 µM | 0.6 ± 0.4 µM | > 10 µM | induce significant amounts of superoxide | 7.2 ± 0.2 µM | 37% | induce apoptosis | 5.2 ± 3.4 µM | > 20 µM | induction of early apoptosis ([7]; 10 μM, 24 hours): failed to induce early apoptosis; increase in early apoptotic cells ([7]; 10 μM, 48 h): 8%; tumor burden (tumor volume) ([9]; i.p. daily 10 mg/kg 9 days, 20 mg/kg 5 days, 40 mg/kg 12 days): significantly reduced tumor burden; average body weight after treatment ([9]; mean±SD, after treatment, control 28±2 g): 29 ± 2 g |
| C#CC(=O)N(c1ccc(-n2cnnn2)c(C)c1)C(C(=O)NC1CCCC1)c1ccccc1F (stereo not drawn) [Compound 4, N-[2-(Cyclopentylamino)-1-(2-fluorophenyl)-2-oxoethyl]-N-[3-methyl-4-(1H-tetraazol-1-yl)phenyl]Propynamide] | 5.5 ± 0.7 µM | 1 ± 0.3 µM | 0.7 ± 0.5 µM | 6.3 ± 1.8 µM | induce significant amounts of superoxide | 1.8 ± 1.7 µM | 62% | induce apoptosis | 1.5 ± 0.8 µM | 6.3 ± 1 µM | cytotoxic potency in 5637 cells [3]: remarkable potency; AUC ([11]; in vivo, 24 mg/kg): 520 ng·h/mL; Cmax ([11]; in vivo, 24 mg/kg): 344 ng/mL; Kel ([11]; in vivo, 24 mg/kg): 0.206 h⁻¹; Tmax ([11]; in vivo, 24 mg/kg): 1.0 h; half-life ([11]; in vivo, 24 mg/kg): ~3.5 h; t1/2 ([11]; in vivo, 24 mg/kg): 3.5 h; concentration at 1 h ([11]; plasma, mice, 24 mg/kg i.p., 1 hour, read-out: concentration in the blood one hour following i.p. administration): 344 ng/mL; percentage of late apoptotic cells ([7]; 10 μM, 24 hours): 27%; percentage of early apoptotic cells ([7]; 10 μM, 48 hours): 24%; cell cycle perturbation ([12]; 5 μM, 6, 12 and 24 hours): induced both S- and G2/M-arrest; also recorded: block cell cycle progression at both S and G2/M phases; increase in number of cells retained in G2/M phase vs untreated control ([12]; 5 μM, 24 hours): 7%; increase in number of cells retained in S phase vs untreated control ([12]; 5 μM, 24 hours): 10%; cytotoxic potency in MDA-MB-435 cells [13]: one of the most active compounds; IC50 [14]: 1 to 2.5 µM |
